Reference: PMC5413979 (Nature Communications, 2017)

Biological target: T1, VcINDY (Vibrio cholerae, UniProt Q9KNE0)
T1 construct: gene VC_A0025

Compound: O=C(O)CCC(=O)O [succinate]
- Km: 220 µM
